{"source": "patent US20210169077A1", "about": "“METHOD FOR IMPROVING SEED GERMINATION AND/OR PLANT TOLERANCE TO ENVIRONMENTAL STRESS” (DANSTAR FERMENT AG, priority 2017, published 2021)", "assay_type_in_all_cases": "in vivo", "key": {"corn seed Variety 1": {"test_system": "corn seed Variety 1", "experiment": "Internal concentration of glycine-betaine (mg/kg) in corn seed, Variety 1 female lines", "conditions": "for Percentage increase in internal GB concentration: versus plants treated with water", "experimental": "(§1) To prevent auto-fertilization during the corn seed production, the male reproductive parts of the female line were removed prior to the time of pollen shed.\n(§2) The commercial Greenstim® (Lallemand) formulation was sprayed to the female line leaves during grain development stage at the equivalent of 4 kg/hectare. Each repetition consists of 18 plants. Control plants were treated with water.\n(§3) Seeds (200) were collected at maturity. Seeds were ground using a ball mill and extracted with ethanol. Samples were evaporated to dryness and dissolved in deuterium oxide (D20) (50 mg/ml). 1H-NMR analysis (Bruker, at 500 MHz) was performed using 3-(trimethylsilyl)-1-propane sulfonate sodium salt (DSS) as the internal standard. Values in ppm assigned to NMR signals are chemical shifts of the 9 protons which give the signal, for the glycine-betaine, at 3.251 ppm. A total of three extractions were performed on each sample."}, "[1]": {"test_system": "corn seeds of the variety Casey", "experiment": "Internal glycine-betaine concentration in corn seeds after foliar application, variety Casey (field trial, 1H-NMR)", "conditions": "Greenstim sprayed on female line leaves at grain development stage, 4 kg/hectare, seeds collected at maturity, Rep 1-3, letter b differs from water control (p < 0.05)", "experimental": "(§4) The field trial was performed with two different varieties of corn: the LG 32.58 variety and the Casey variety.\nas §1, §2, §3"}, "[2]": {"test_system": "corn seeds of the variety LG 32.58", "experiment": "Internal glycine-betaine concentration in corn seeds after foliar application, variety LG 32.58 (field trial, 1H-NMR)", "experimental": "as §4, §1\n[…] Each repetition consists of 18 plants. Control plants were treated with water.\nas §3"}, "corn seed": {"test_system": "corn seed", "experiment": "Effect of cold temperature on corn seed germination", "experimental": "Two hundred seeds of each treatment (plants treated with water and plants treated with glycine-betaine) were planted onto moistened sand. Samples were placed into a germination chamber at 10° C. for a period of 7 days. Samples were then transferred to a germination chamber set to 25° C. for 5 days. The experiment was conducted with a variety of seeds with increased cold tolerance compared to more traditional seed varieties. The germination rate of standard seeds after a cold germination test is between 50 to 70%."}}, "note": "Values joined by “and” are separate entries in the source; they are usually repeats but may differ in a detail not shown here. Identical values can stand only once.", "data": [{"smiles": "C[N+](C)(C)CC(=O)[O-]", "note": "[GB, N,N,N-trimethylglycine]", "values": [{"measurement": "Internal concentration of glycine-betaine in corn seed, Mean GB (plants treated with GB)", "setting": "corn seed Variety 1; Variety 1-female 1, Rep 1", "value": 6.67, "unit": "mg/kg"}, {"measurement": "Percentage increase in internal GB concentration", "setting": "corn seed Variety 1; Variety 1-female 1, Rep 1", "value": 53, "unit": "%"}, {"measurement": "Internal concentration of glycine-betaine in corn seed, Mean GB (plants treated with GB)", "setting": "corn seed Variety 1; Variety 1-female 2, Rep 2", "value": 5.19, "unit": "mg/kg"}, {"measurement": "Percentage increase in internal GB concentration", "setting": "corn seed Variety 1; Variety 1-female 2, Rep 2", "value": 1135, "unit": "%"}, {"measurement": "Internal concentration of glycine-betaine in corn seed, Mean GB (plants treated with GB)", "setting": "corn seed Variety 1; Variety 1-female 3, Rep 3", "value": 6.89, "unit": "mg/kg"}, {"measurement": "Percentage increase in internal GB concentration", "setting": "corn seed Variety 1; Variety 1-female 3, Rep 3", "value": 15, "unit": "%"}, {"measurement": "GB concentration, GB (plants treated with GB)", "setting": "[1]", "value": "79.19b μg · g^−1 MS and 79.33b μg · g^−1 MS and 83.91b μg · g^−1 MS"}, {"measurement": "GB concentration, GB (plants treated with GB)", "setting": "[2]; corn variety LG 32.58, Greenstim sprayed on female line leaves at grain development stage, 4 kg/hectare, seeds collected at maturity, Rep 1-3, letter b differs from water control (p < 0.05)", "value": "41.18b μg · g^−1 MS and 37.71b μg · g^−1 MS and 38.53b μg · g^−1 MS"}, {"measurement": "Internal glycine-betaine content of the seeds compared to untreated seeds", "setting": "[2]; summary of Tables 1 to 4, plants sprayed at the flowering stage", "value": "significantly higher"}, {"measurement": "Seed germination percentage (plants treated with GB)", "setting": "corn seed; Variety-female 3, 200 seeds on moistened sand, 10° C. for 7 days then 25° C. for 5 days", "value": 86.61}, {"measurement": "Percentage increase in germination", "setting": "corn seed; Variety-female 3, after cold treatment, versus seeds from plants treated with water", "value": 2.1, "unit": "%"}, {"measurement": "Seed germination percentage after cold treatment compared with untreated seeds", "setting": "corn seed; summary of Table 5, seeds with increased internal content of glycine-betaine", "value": "significantly better seed germination percentage"}]}]}
